Experimental data taken from ChEMBL document CHEMBL1201862, “PubChem BioAssay data set” (2004).
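Each compound was tested at five concentrations against cells in 96-well plates for 48 hours. GI50: concentration for 50% inhibition of growth.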 The source made the active and inactive calls. Cut-off read from the data, not from the text of the source: active = GI50 up to about 1.1 µM and inactive = higher.

What was measured:
Test in all cases: NCI-60 cell line screen, 48 h
786-0 = test system: 786-0
A498 = test system: A498
A549 = test system: A549
COLO 205 = test system: COLO 205
HT-29 = test system: HT-29
KM12 = test system: KM12
NCI-H460 = test system: NCI-H460
OVCAR-8 = test system: OVCAR-8
RPMI-8226 = test system: RPMI-8226
SF-268 = test system: SF-268
SK-MEL-28 = test system: SK-MEL-28
SK-MEL-5 = test system: SK-MEL-5
SK-OV-3 = test system: SK-OV-3
SNB-75 = test system: SNB-75
TK-10 = test system: TK-10
UACC-257 = test system: UACC-257
LOX IMVI = test system: LOX IMVI
NCI-H226 = test system: NCI-H226
NCI-H23 = test system: NCI-H23

Measured: GI50

C/C=C1\C(=O)O[C@H]2C/C(C)=C/CC/C(C)=C/CC[C@@]3(C)O[C@@H]3C[C@@H]12
inactive: 786-0 > 100 µM | A498 > 100 µM | A549 > 100 µM | COLO 205 > 100 µM | HT-29 > 100 µM | KM12 > 100 µM | NCI-H460 46.1 µM | OVCAR-8 > 100 µM | RPMI-8226 74.1 µM | SF-268 > 100 µM | SK-MEL-28 > 100 µM | SK-MEL-5 > 100 µM | SK-OV-3 > 100 µM | SNB-75 > 100 µM | TK-10 > 100 µM | UACC-257 > 100 µM

COc1ccc(C(c2c(O)c3ccccc3n(-c3ccccc3)c2=O)c2c(O)c3ccccc3n(-c3ccccc3)c2=O)cc1
inactive: 786-0 25.4 µM | A549 > 100 µM | COLO 205 > 100 µM | KM12 > 100 µM | LOX IMVI > 100 µM | NCI-H226 > 100 µM | NCI-H23 > 100 µM | RPMI-8226 > 100 µM | SF-268 > 100 µM | SK-MEL-28 > 100 µM | SK-MEL-5 > 100 µM | TK-10 > 100 µM

C1CSC[C@H]2COC[C@@H](CSCCS1)S2
inactive: 786-0 > 100 µM | A549 > 100 µM | COLO 205 > 100 µM | HT-29 > 100 µM | KM12 > 100 µM | LOX IMVI > 100 µM | NCI-H23 > 100 µM | NCI-H460 > 100 µM | OVCAR-8 > 100 µM | SF-268 > 100 µM | SK-MEL-28 > 100 µM | SK-MEL-5 > 100 µM | SNB-75 56 µM | TK-10 50.4 µM | UACC-257 > 100 µM

Cc1cc(C)[n+]2c(c1)C=CC2.[O-][Cl+3]([O-])([O-])[O-]
inactive: 786-0 37.2 µM | A549 18.1 µM | COLO 205 15 µM | HT-29 15.9 µM | KM12 27.6 µM | LOX IMVI 17.1 µM | NCI-H226 15.6 µM | NCI-H23 15.7 µM | NCI-H460 34.8 µM | OVCAR-8 28.6 µM | SF-268 64 µM | SK-MEL-28 12.4 µM | SK-MEL-5 13.9 µM | SNB-75 6.05 µM | TK-10 92 µM | UACC-257 11.5 µM

O=C(NN1C(=O)C(Cl)C1c1ccc(O)cc1)c1ccccc1O (stereo not drawn)
inactive: 786-0 18.7 µM | A549 22.4 µM | HT-29 18.4 µM | KM12 14 µM | LOX IMVI 16.7 µM | NCI-H226 16 µM | NCI-H23 22.2 µM | NCI-H460 17.5 µM | OVCAR-8 13.5 µM | SF-268 18.8 µM | SK-MEL-28 19.4 µM | SK-MEL-5 14.6 µM | SK-OV-3 25.8 µM | SNB-75 34.8 µM | TK-10 24.7 µM | UACC-257 20.7 µM

O=c1c2ccccc2oc2nccnc12
inactive: 786-0 > 100 µM | A498 > 100 µM | A549 > 100 µM | COLO 205 > 100 µM | HT-29 > 100 µM | KM12 > 100 µM | LOX IMVI > 100 µM | NCI-H23 > 100 µM | NCI-H460 > 100 µM | OVCAR-8 > 100 µM | RPMI-8226 > 100 µM | SF-268 > 100 µM | SK-MEL-28 > 100 µM | SK-MEL-5 > 100 µM | SK-OV-3 > 100 µM | SNB-75 > 100 µM | TK-10 > 100 µM | UACC-257 > 100 µM

O/N=C1/C(=C/c2ccc(Oc3ccccc3)cc2)CCCC1C(NO)c1ccc(Oc2ccccc2)cc1 (stereo not drawn)
inactive: 786-0 28.6 µM | A549 13.8 µM | COLO 205 19.3 µM | HT-29 16.1 µM | KM12 22.3 µM | LOX IMVI 13.6 µM | NCI-H226 25.1 µM | NCI-H23 16.9 µM | NCI-H460 27.9 µM | OVCAR-8 26.4 µM | RPMI-8226 18.2 µM | SF-268 37.2 µM | SK-MEL-28 61.2 µM | SK-MEL-5 13.4 µM | SK-OV-3 > 100 µM | SNB-75 69.8 µM | TK-10 10.3 µM | UACC-257 50.1 µM

COc1cc(OC)cc(-c2nc3cc(F)ccc3s2)c1
inactive: 786-0 9.08 µM | A498 19.1 µM | A549 > 100 µM | COLO 205 34.1 µM | HT-29 > 100 µM | KM12 > 100 µM | LOX IMVI 53.8 µM | NCI-H226 13.7 µM | NCI-H23 12.9 µM | NCI-H460 21.8 µM | OVCAR-8 30.8 µM | RPMI-8226 > 100 µM | SF-268 13.8 µM | SK-MEL-5 > 100 µM | SK-OV-3 13.5 µM | TK-10 15.8 µM | UACC-257 > 100 µM
